Test results reported in ChEMBL document CHEMBL5500395 (J Med Chem, 2024).

experiment: Solubility of compound in PBS at pH 7.4 at 100 uM incubated for 120 mins by LC-MS/MS analysis; assay type: physicochemical; conditions: buffer, pH 7.4, 2 h

solubility, Soluble:
N[C@H]1C[C@H](OC(=O)[C@@H]2[C@H]3C[C@H]4c5[nH]c6ccccc6c5CCN4C[C@@H]3CC[C@@H]2O)C1
O=C(OC[C@H]1CCN1)[C@@H]1[C@H]2C[C@H]3c4[nH]c5ccccc5c4CCN3C[C@@H]2CC[C@@H]1O
O=C(OC[C@H]1CCNC1)[C@@H]1[C@H]2C[C@H]3c4[nH]c5ccccc5c4CCN3C[C@@H]2CC[C@@H]1O
CC(C)OC(=O)[C@@H]1[C@H]2C[C@H]3c4[nH]c5ccccc5c4CCN3C[C@@H]2CC[C@@H]1O
O=C(OC1COC1)[C@@H]1[C@H]2C[C@H]3c4[nH]c5ccccc5c4CCN3C[C@@H]2CC[C@@H]1O
N[C@H]1C[C@@H](OC(=O)[C@@H]2[C@H]3C[C@H]4c5[nH]c6ccccc6c5CCN4C[C@@H]3CC[C@@H]2O)C1
O=C(N[C@H]1CCNC1)[C@@H]1[C@H]2C[C@H]3c4[nH]c5ccccc5c4CCN3C[C@@H]2CC[C@@H]1O
CNCCOC(=O)[C@@H]1[C@H]2C[C@H]3c4[nH]c5ccccc5c4CCN3C[C@@H]2CC[C@@H]1O
O=C(OC1CCNCC1)[C@@H]1[C@H]2C[C@H]3c4[nH]c5ccccc5c4CCN3C[C@@H]2CC[C@@H]1O
O=C(OC[C@H]1CCCN1)[C@@H]1[C@H]2C[C@H]3c4[nH]c5ccccc5c4CCN3C[C@@H]2CC[C@@H]1O
O=C(O[C@H]1CCOC1)[C@@H]1[C@H]2C[C@H]3c4[nH]c5ccccc5c4CCN3C[C@@H]2CC[C@@H]1O
CN1CC[C@H](OC(=O)[C@@H]2[C@H]3C[C@H]4c5[nH]c6ccccc6c5CCN4C[C@@H]3CC[C@@H]2O)C1
O=C(OC[C@@H]1CCNC1)[C@@H]1[C@H]2C[C@H]3c4[nH]c5ccccc5c4CCN3C[C@@H]2CC[C@@H]1O
O=C(OC1CNC1)[C@@H]1[C@H]2C[C@H]3c4[nH]c5ccccc5c4CCN3C[C@@H]2CC[C@@H]1O
CCOC(=O)[C@@H]1[C@H]2C[C@H]3c4[nH]c5ccccc5c4CCN3C[C@@H]2CC[C@@H]1O
O=C(O[C@@H]1CCNC1)[C@@H]1[C@H]2C[C@H]3c4[nH]c5ccccc5c4CCN3C[C@@H]2CC[C@@H]1O
O=C(O[C@H]1CCNC1)[C@@H]1[C@H]2C[C@H]3c4[nH]c5ccccc5c4CCN3C[C@@H]2CC[C@@H]1O
